Each structure is given as a SMILES string.

Chain of Integrin alpha-V/beta-3 (P05106 27-788 limits assumed): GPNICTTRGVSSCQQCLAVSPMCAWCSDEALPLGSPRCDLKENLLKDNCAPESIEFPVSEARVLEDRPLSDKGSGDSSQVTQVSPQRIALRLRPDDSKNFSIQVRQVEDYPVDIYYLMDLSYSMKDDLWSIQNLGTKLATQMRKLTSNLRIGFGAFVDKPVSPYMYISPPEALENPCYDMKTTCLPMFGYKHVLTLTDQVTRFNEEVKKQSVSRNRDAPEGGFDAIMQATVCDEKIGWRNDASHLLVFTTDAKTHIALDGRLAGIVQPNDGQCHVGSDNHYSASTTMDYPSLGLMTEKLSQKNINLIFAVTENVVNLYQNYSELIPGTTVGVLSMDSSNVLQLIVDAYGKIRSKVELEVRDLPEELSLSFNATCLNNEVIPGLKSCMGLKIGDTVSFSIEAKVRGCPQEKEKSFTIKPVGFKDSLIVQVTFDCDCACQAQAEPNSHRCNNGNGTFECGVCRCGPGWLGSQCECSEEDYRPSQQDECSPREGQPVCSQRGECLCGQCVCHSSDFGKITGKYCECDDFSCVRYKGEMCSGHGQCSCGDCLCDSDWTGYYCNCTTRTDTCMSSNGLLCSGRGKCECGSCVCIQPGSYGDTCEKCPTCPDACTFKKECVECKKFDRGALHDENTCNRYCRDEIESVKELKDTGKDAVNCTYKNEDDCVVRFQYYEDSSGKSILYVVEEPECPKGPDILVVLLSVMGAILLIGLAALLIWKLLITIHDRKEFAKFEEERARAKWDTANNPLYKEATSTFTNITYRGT
Chain of Integrin alpha-V/beta-3 (P06756 31-889 limits assumed): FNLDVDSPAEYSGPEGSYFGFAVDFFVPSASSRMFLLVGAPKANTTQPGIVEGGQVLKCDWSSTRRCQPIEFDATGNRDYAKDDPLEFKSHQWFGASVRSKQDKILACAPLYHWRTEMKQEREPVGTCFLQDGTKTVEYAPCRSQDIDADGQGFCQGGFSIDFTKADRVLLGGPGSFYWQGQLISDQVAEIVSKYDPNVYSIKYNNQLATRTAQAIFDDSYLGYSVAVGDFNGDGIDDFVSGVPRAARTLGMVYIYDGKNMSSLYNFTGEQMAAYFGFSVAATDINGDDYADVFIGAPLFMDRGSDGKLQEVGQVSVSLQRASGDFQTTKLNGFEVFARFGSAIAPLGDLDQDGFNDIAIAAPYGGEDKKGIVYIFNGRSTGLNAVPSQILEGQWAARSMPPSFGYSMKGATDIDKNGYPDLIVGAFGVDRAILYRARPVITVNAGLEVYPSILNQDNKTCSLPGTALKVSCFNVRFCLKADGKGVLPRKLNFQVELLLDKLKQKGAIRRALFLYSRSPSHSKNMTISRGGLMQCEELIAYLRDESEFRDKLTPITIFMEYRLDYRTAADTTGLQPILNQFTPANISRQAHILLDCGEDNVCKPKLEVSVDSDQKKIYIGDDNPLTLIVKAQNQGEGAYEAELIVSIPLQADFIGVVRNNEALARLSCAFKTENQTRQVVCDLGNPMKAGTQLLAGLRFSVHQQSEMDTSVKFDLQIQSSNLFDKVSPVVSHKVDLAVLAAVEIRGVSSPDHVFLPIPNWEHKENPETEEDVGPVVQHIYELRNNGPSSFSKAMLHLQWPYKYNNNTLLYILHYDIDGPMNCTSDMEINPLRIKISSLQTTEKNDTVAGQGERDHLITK
Chain of Integrin alpha-V/beta-3 (P06756 891-1048 limits assumed): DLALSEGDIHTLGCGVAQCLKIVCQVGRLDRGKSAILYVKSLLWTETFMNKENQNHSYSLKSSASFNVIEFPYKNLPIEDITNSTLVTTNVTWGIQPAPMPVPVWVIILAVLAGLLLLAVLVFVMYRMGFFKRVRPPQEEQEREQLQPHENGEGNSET

The assay concerns the target Integrin alpha-V/beta-3 (Homo sapiens, UniProt P05106+P06756). The assay can be described thus: Displacement of [125I]echistatin from alphaVbeta3 receptor in human EA-Hy926 cells by gamma-counting. Format: cell-based. On the technique in general: Loss of bound radioactivity is the signal in a displacement assay; it reports binding, not function.
One may read the Ki as the dissociation constant of the complex between target and ligand, obtained from inhibition or displacement. `Cc1cc(C)c(S(=O)(=O)N[C@H](CNC(=O)c2cn(CCCNC(=O)COCC(=O)NCCOCCOCCOCCOCCOCCOCCOCCOCCOCCOCCOCCNC(=O)c3ccc(F)nc3)c3cc(CNc4ncc[nH]4)ccc3c2=O)C(=O)O)c(C)c1`: the inhibition constant (Ki) amounted to 14.8 nM.

Consider `Cc1cc(C)c(S(=O)(=O)N[C@H](CNC(=O)c2cn(CCCNC(=O)c3ccc(F)nc3)c3cc(CNc4ncc[nH]4)ccc3c2=O)C(=O)O)c(C)c1`, for which the Ki is 19.1 nM.

In the case of `NC(=O)COCC(=O)NCCOCCOCCOCCNC(=O)[C@@H]1CSCC(=O)N[C@@H](CCCCNC(=O)COCC(=O)NCCOCCOCCOCCOCCOCCNC(=O)CONC(=O)c2ccc(F)nc2)C(=O)N[C@H]2CSSC[C@H](NC(=O)[C@H](CC(=O)O)NC(=O)CNC(=O)[C@H](CCCN=C(N)N)NC2=O)C(=O)N[C@@H](Cc2ccccc2)C(=O)C1`, the Ki amounted to 2 nM.

For the origin of these results see ChEMBL document CHEMBL1156868, “One step radiosynthesis of 6-[(18)F]fluoronicotinic acid 2,3,5,6-tetrafluorophenyl ester ([(18)F]F-Py-TFP): a new prosthetic group for efficient labeling of biomolecules with fluorine-18” (J Med Chem, 2010).
